Experimental data published in paper PMC7731434, “Development and Validation of a Bioanalytical Method for 3′- and 6′-Sialyllactose in Minipig Liver and Kidney Using Liquid Chromatography-Tandem Mass Spectrometry and Its Application to Analysis of Tissue Distribution” (Molecules, 2020).
Like-named read-outs stand apart in the source and are kept apart here.

Key:
[1] = Tissue distribution study in minipigs after intravenous administration; type: in vivo, Yucatan minipigs; details: minipig; for T/P Ratio Kidney/Plasma / T/P Ratio Liver/Plasma / Kp at 2 h / concentration at 2 h: 2 h after intravenous administration of 12.5 mg/kg; for T/P Ratio Kidney/Plasma / T/P Ratio Liver/Plasma / Kp at 2 h: 12.5 mg/kg; for Kp at 2 h / concentration at 2 h: Yucatan; for Kp at 2 h: iv
Procedure: A tissue distribution study was conducted involving intravenous injection of minipigs with 3′-SL and 6′-SL at a dose of 12.5 mg/kg. Kidney, liver, and blood samples were collected. The tissue to plasma (T/P) ratio was also calculated from the concentrations of 3′-SL and 6′-SL in the kidney, liver, and plasma, from the same minipigs at the same time points.
The tissue distribution of 3′-SL and 6′-SL in Yucatan minipigs was assessed following intravenous administration at a dose of 12.5 mg/kg. The animal experiments were performed in compliance with the Animal Welfare Act and Guide for the Care and Use of Laboratory Animals of Institute for Laboratory Animal Research (ILAR). The animals were kept in a single cage at constant room temperature (23 ± 3 °C) and 30–70% humidity under a regular 12-h light/12-h dark cycle. Animals were provided with approximately 25 g/kg/day food and water was freely available.
Two minipigs were sacrificed at 2 h after administration; liver and kidney tissues, and blood from the jugular vein, were then collected. Each tissue was immediately removed and washed with normal saline, blotted dry with a paper towel, cut into pieces with scissors, and individually homogenized with three volumes of normal saline (v/w) in an Ultra-Turrax apparatus (IKA Works, Wilmington, NC, USA). After blood collection into K2-EDTA tubes, blood samples were gently mixed and placed on crushed wet-ice/Kryorack (Streck Laboratories, Omaha, NE, USA). Following centrifugation at 20,740 × g for 3 min at 4 °C for separation of plasma, the plasma was transferred into labeled polypropylene tubes.
The collected tissues were analyzed using the method developed in this study, and the plasma was analyzed by the method described in our previous study (in press).

[2] = Biological sample stability: benchtop (room temperature 4 h) and long-term (-80 °C, 34 days); type: physicochemical, minipig; details: for Benchtop and long-term stability, RE (%): -80 °C 34 days then room temperature 4 h, n = 3; for Benchtop and long-term stability values (RE), range: all QC samples of 3′-SL and 6′-SL pooled
Procedure: (§1) Benchtop and long-term stability were evaluated simultaneously. The benchtop stability test was carried out at room temperature (24 °C) for 4 h using samples with long-term stability, i.e., those stored at −80 °C for 34 days. […] The post-preparative stability (RE) of samples after 21 h of storage at 10 °C in an autosampler tray ranged from –3.1% to 8.7% for liver QC samples and −10.2% to 4.7% for kidney QC samples of 3′-SL and 6′-SL. To investigate freeze/thaw stability, QC samples were frozen at −80 °C and thawed at room temperature over four cycles. The stability of all QC samples of 3′-SL and 6′-SL ranged from −6.7% to 7.6% for the liver and −9.3% to −3.2% for the kidney. All stability results satisfied the acceptance criterion of ±15% of the nominal concentration.
(§2) The biological samples were evaluated for benchtop, freeze/thaw, post-preparative, and long-term stability. The stability tests were performed by measuring LQC and HQC samples with three replicates. The background concentration of SL in the blank authentic tissues was set to the nominal LQC concentration in the stability test. As the background concentration of SL in the authentic matrix is similar to or higher than the LQC (60 ng/g), the deviation of the background concentration of SL markedly affects the accuracy of LQC. The background concentration of the blank samples was determined on initiation of the stability test. The HQC samples were prepared by adding a standard solution to the authentic matrix, and the results were calculated by subtracting the endogenous concentration in the blank matrix. Benchtop and long-term stability were evaluated simultaneously with the benchtop stability test carried out at room temperature (approximately 24 °C) for 4 h using samples with long-term stability (stored at −80 °C for 34 days). The post-preparative stability was assessed at 10 °C on an autosampler tray for 21 h. The freeze/thaw stability was evaluated by four cycles of freezing at −80 °C and thawing at room temperature.

[3] = Biological sample stability: post-preparative, autosampler tray; type: physicochemical, minipig; details: for Post-preparative stability (RE), range: 21 h at 10 °C; for Post-preparative stability, RE (%): 10 °C for 21 h, n = 3
Procedure: as §1, §2

[4] = Biological sample stability: freeze/thaw, four cycles; type: physicochemical, minipig; details: for Freeze/thaw stability, RE (%): four cycles -80 °C/room temperature, n = 3; for Freeze/thaw stability (RE), range: all QC samples of 3′-SL and 6′-SL pooled, four cycles
Procedure: as §1, §2

[5] = kidney / plasma, read-out: T/P Ratio Kidney/Plasma
[6] = liver / plasma, read-out: T/P Ratio Liver/Plasma
[7] = kidney, read-out: Tissue Concentration Kidney
[8] = liver, read-out: Tissue Concentration Liver
[9] = plasma, read-out: Tissue Concentration Plasma
[10] = kidney, LQC (nominal = background concentration)
[11] = liver, LQC (nominal = background concentration)
[12] = kidney QC samples of 3′-SL and 6′-SL pooled
[13] = liver QC samples of 3′-SL and 6′-SL pooled

Compound | T/P Ratio Kidney/Plasma [1] | T/P Ratio Liver/Plasma [1] | Kp at 2 h [1, 5] | Kp at 2 h [1, 6] | concentration at 2 h [1, 7] | concentration at 2 h [1, 8] | concentration at 2 h [1, 9] | Benchtop and long-term stability, RE (%) ([2]; kidney, HQC 15,000 ng/g) | Benchtop and long-term stability, RE (%) [2, 10] | Benchtop and long-term stability values (RE), range ([2]; kidney) | Benchtop and long-term stability, RE (%) ([2]; liver, HQC 15,000 ng/g) | Benchtop and long-term stability, RE (%) [2, 11] | Benchtop and long-term stability values (RE), range ([2]; liver) | Post-preparative stability (RE), range [3, 12] | Post-preparative stability, RE (%) ([3]; kidney, HQC 15,000 ng/g) | Post-preparative stability, RE (%) [3, 10] | Post-preparative stability (RE), range [3, 13] | Post-preparative stability, RE (%) ([3]; liver, HQC 15,000 ng/g) | Post-preparative stability, RE (%) [3, 11] | Freeze/thaw stability, RE (%) ([4]; kidney, HQC 15,000 ng/g) | also measured
CC(=O)N[C@H]1[C@H]([C@H](O)[C@H](O)CO)O[C@@](O[C@H]2[C@@H](O)[C@@H](CO)O[C@@H](O[C@H]3[C@H](O)[C@@H](O)[C@H](O)O[C@@H]3CO)[C@@H]2O)(C(=O)O)C[C@@H]1O [3′-SL, 3′-sialyllactose] | 1.0 | 0.12 | 1 to 1.3 | 0.12 to 0.14 | 22300 ng/g | 2550 ng/g | 21500 ng/g | −6.0% | −9.2% | −10.1% to −6.0 | −5.3% | −7.6% | −7.6% to 3.7 | −10.2% to 4.7 | −3.3% | −10.2% | –3.1% to 8.7 | −2.7% | −1.3% | −8.0% | Freeze/thaw stability, RE (%) [4, 10]: −3.2%; Freeze/thaw stability (RE), range ([4]; kidney): −9.3% to −3.2; Freeze/thaw stability, RE (%) ([4]; liver, HQC 15,000 ng/g): −6.7%; Freeze/thaw stability, RE (%) [4, 11]: −5.8%; Freeze/thaw stability (RE), range ([4]; liver): −6.7% to 7.6
CC(=O)NC1C(O)CC(OCC2OC(OC3C(CO)OC(O)C(O)C3O)C(O)C(O)C2O)(C(=O)O)OC1C(O)C(O)CO (stereo not drawn) [6′-SL, 6′-sialyllactose] | 1.3 | 0.14 | 1 to 1.3 | 0.12 to 0.14 | 27000 ng/g | 3030 ng/g | 21000 ng/g | −6.7% | −10.1% | −10.1% to −6.0 | −3.3% | 3.7% | −7.6% to 3.7 | −10.2% to 4.7 | 4.7% | 0.5% | –3.1% to 8.7 | 8.7% | −3.1% | −9.3% | Exposure of tissues to 6′-SL higher than that of 3′-SL ([1]; liver and kidney, 2 h after i.v. 12.5 mg/kg): approximately 20%; Freeze/thaw stability, RE (%) [4, 10]: −6.8%; Freeze/thaw stability (RE), range ([4]; kidney): −9.3% to −3.2; Freeze/thaw stability, RE (%) ([4]; liver, HQC 15,000 ng/g): −5.3%; Freeze/thaw stability, RE (%) [4, 11]: 7.6%; Freeze/thaw stability (RE), range ([4]; liver): −6.7% to 7.6
